Reference: US5525596A, “Absorption enhancer/solubilizer combination for improved bioavailability of a zwitterionic compound” (Merck & Co., Inc., priority 1994, dated 1996)
Like-named read-outs stand apart in the source and are kept apart here.

Key:
[1] = Jejunal absorption of drug solutions from ligated sections of the jejunum of anesthetized rats (bile collection); type: in vivo; conditions: rat, pH 7.4, solution 2 mg/ml drug, read-out: % of Dose Absorbed Relative to IV (+/- s.d.)
Experimental: (§1) Solutions of palmitoyl carnitine, β-cyclodextrin and an [R-(R*,R*)]-3-[(2-hydroxypropyl)amino]-3-methyl-N-[2,3,4,5-tetrahydro-2-oxo-1-[[2'-(H-tetrazol-5-yl)[1,1'-biphenyl]-4-yl]methyl]-1H-1-benzazepin-3-yl]butanamide having the following structure: [drawing 1] hereinafter referred to as [R-(R*,R*)]-3-[(2-hydroxypropyl)amino]-3-methyl-N-[2,3,4,5-tetrahydro-2-oxo-1-[[2'-(H-tetrazol-5-yl)[1,1'-biphenyl]-4-yl]methyl]-1H-1-benzazepin-3-yl]butanamide were prepared such that [R-(R*,R*)]-3-[(2-hydroxypropyl)amino]-3-methyl-N-[2,3,4,5-tetrahydro-2-oxo-1-[[2'-(H-tetrazol-5-yl)[1,1'-biphenyl]-4-yl]methyl]-1H-1-benzazepin-3-yl]butanamide was maintained at 2 mg/ml. All solutions were prepared in Krebs-Henseleit buffer at Ph 7.4. The solutions were administered to ligated sections of the jejunum of anesthetized rats. […] The bile was collected in 15 minute intervals for 3.5 hours and analyzed for [R-(R*,R*)]-3-[(2-hydroxypropyl)amino]-3-methyl-N-[2,3,4,5-tetrahydro-2-oxo-1-[[2'-(H-tetrazol-5-yl)[1,1'-biphenyl]-4-yl]methyl]-1H-1-benzazepin-3-yl]butanamide content. From the bile volume, the total amount of drug eliminated could be calculated. After an IV dose, 92% of the drug is found in the bile. Therefore all value were divided by 0.92 to give true absorption values. These values are given in table 1, along with standard deviations which were observed.

[2] = Absorption of solid formulations (powders, tablets, beads) from unligated sections of the jejunum of anesthetized rats (bile collection); type: in vivo; conditions: rat
Experimental: as §1
Powders were prepared so as to contain in each dose, 2 mg/kg of [R-(R*,R*)]-3-[(2-hydroxypropyl)amino]-3-methyl-N-[2,3,4,5-tetrahydro-2-oxo-1-[[2'-(H-tetrazol-5-yl)[1,1'-biphenyl]-4-yl]methyl]-1H-1-benzazepin-3-yl]butanamide, 0-10 mg/kg palmitoyl carnitine chloride, 0-15 mg/kg β-cyclodextrin and microcrystalline cellulose. The powders were administered to unligated sections of the jujunum of anesthetized rats. Bile was collected and the absorption of [R-(R*,R*)]-3-[(2-hydroxypropyl)amino]-3-methyl-N-[2,3,4,5-tetrahydro-2-oxo-1-[[2'-(H-tetrazol-5-yl)[1,1'-biphenyl]-4-yl]methyl]-1H-1-benzazepin-3-yl]butanamide was determined as in Example 1. The results of these studies are provided in Table 2, along with observed standard deviations.
Lyophilized preparations of [R-(R*,R*)]-3-[(2-hydroxypropyl)amino]-3-methyl-N-[2,3,4,5-tetrahydro-2-oxo-1-[[2'-(H-tetrazol-5-yl)[1,1'-biphenyl]-4-yl]methyl]-1H-1-benzazepin-3-yl]butanamide were prepared from solutions containing 2 mg/ml of [R-(R*,R*)]-3-[(2-hydroxypropyl)amino]-3-methyl-N-[2,3,4,5-tetrahydro-2-oxo-1-[[2'-(H-tetrazol-5-yl)[1,1'-biphenyl]-4-yl]methyl]-1H-1-benzazepin-3-yl]butanamide and 15 mg/ml of β-cyclodextrin or 20 mg/ml hydroxypropyl-β-cyclodextrin. The lyophilized preparations were mixed with palmitoyl carnitine chloride and microcrystalline cellulose and compressed into tablets. The tablets contained 2 mg/kg of [R-(R*,R*)]-3-[(2-hydroxypropyl)amino]-3 -methyl -N-[2,3,4,5,-tetrahydro-2-oxo-1-[[2'-(H-tetrazol-5-yl)[1,1'biphenyl]-4-yl]methyl-1H1-benzazepin-3-yl]butanamide and 10 mg/kg palmitoyl carnitine chloride. The tablets were administered to the unligated sections of the jejunum of anesthetized rats. Bile was collected and the absorption of [R-(R*,R*)]-3-[(2-hydroxypropyl) amino]-3 -methyl -N- [2,3,4,5 -tetrahydro-2-oxo-1-[[2'-(H-tetrazol-5-yl)[1,1'-biphenyl]-4-yl]methyl]-1H- 1-benzazepin-3-yl]butanamide determined as in Example 1. The percentage absorption of [R-(R*,R*)]-3-[(2-hydroxypropyl)amino]-3-methyl-N-[2,3,4,5-tetrahydro-2-oxo-1-[[2'-(H-tetrazol-5-yl)[1,1'-biphenyl]-4-yl]methyl]-1H-1-benzazepin-3-yl]butanamide from the lyophilized formulation containing β-cyclodextrinwas 28.2±18.3 and from the hydroxpropyl-β-cyclodextrin, 7.5±6.2.
Fifteen parts of water were added to a mixture of [R-(R*,R*)]-3-[(2-hydroxypropyl)amino]-3-methyl-N-[2,3,4,5-tetrahydro-2-oxo-1-[[2'-(H-tetrazol-5-yl)[1,1'-biphenyl]-4-methyl]-1H-1-benzazepin-3-yl]butanamide, β-cyclodextrin, palmitoyl carnitine chloride, micro-crystalline cellulose and starct (2:15:10:15:10). The preparation was extruded through a screen ([…]) and spheronized. […]

[3] = Plasma/blood exposure after administration of compressed tablets to the duodenum of dogs; type: in vivo, dog; conditions: tablet, 1 mg/kg drug, 10 mg/kg palmitoyl carnitine chloride, four hours
Experimental: Compressed tablets were prepared with and without 112 mg β-cyclodextrin (7.5 mg/kg), containing 15 mg of [R-(R*,R*)]-3-[(2-hydroxypropyl)amino]-3-methyl-N-[2,3,4,5-tetrahydro-2-oxo-1[[2'-(H-tetrazol-5-yl)[1,1'-biphenyl]-4-yl]methyl]-1H-1-benzazepin-3-yl]butanamide (1 mg/kg) and 150 mg palmitoyl carnitine chloride (10 mg/kg) in a tablet matrix containing 203 mg microcrystalline cellulose, 100 mg lactose, 20 mg corn starch and 2 mg magnesium stearate. The tablets were administered to the duodenum of dogs through a surgically prepared fistual. Serial blood samples were taken from the dogs for four hours after dosing and analyzed for [R-(R*,R*)]-3-[(2-hydroxypropyl)amino]-3-methyl-N -[2,3,4,5-tetra-hydro-2-oxo-1-[[2'-(H-tetrazol-5-yl)[1,1'-biphenyl]-4-yl]methyl]-1H-1-benzazepin-3-yl]butanamide. The results given as resulting area under [R-(R*,R*)]-3-[(2-hydroxy-propyl)amino] -3-methyl-N-[2,3,4,5-tetrahydro-2-oxo- 1-[[2'-(H-tetrazol-5-yl)[1,1'-biphenyl]-4-yl]methyl]-1H-1-benzazepin-3-yl]butanamide concentration-time curve ± standard deviations, are 361±168 ng min/ml in the absence of β-cyclodextrin and […] in the presence of β-cyclodextrin.

[4] = Biliary excretion in rats; type: in vivo, rat
Experimental: as §1

Q: Which Fa at 3.5 h ([1]; palmitoyl carnitine chloride 0 mg/kg, β-cyclodextrin 0 mg/kg) does the source give for `C[C@@H](O)CNC(C)(C)CC(=O)N[C@@H]1CCc2ccccc2N(Cc2ccc(-c3ccccc3-c3nnn[nH]3)cc2)C1=O` [[R-(R*,R*)]-3-[(2-hydroxypropyl)amino]-3-methyl-N-[2,3,4,5-tetrahydro-2-oxo-1-[[2'-(H-tetrazol-5-yl)[1,1'-biphenyl]-4-yl]methyl]-1H-1-benzazepin-3-yl]butanamide] here?
A: 4.98 ± 5.67%

Q: And the Fa at 3.5 h ([1]; palmitoyl carnitine chloride 0 mg/kg, β-cyclodextrin 7.5 mg/kg)?
A: 3.1 ± 1.59%

Q: What about the Fa at 3.5 h ([1]; palmitoyl carnitine chloride 0 mg/kg, β-cyclodextrin 15 mg/kg) of the same molecule?
A: 12 ± 7.23%

Q: And the Fa at 3.5 h ([1]; palmitoyl carnitine chloride 5 mg/kg, β-cyclodextrin 0 mg/kg)?
A: 11.9 ± 2.6%

Q: What about the Fa at 3.5 h ([1]; palmitoyl carnitine chloride 5 mg/kg, β-cyclodextrin 7.5 mg/kg) of the same molecule?
A: 14 ± 5.4%

Q: What about the Fa at 3.5 h ([1]; palmitoyl carnitine chloride 5 mg/kg, β-cyclodextrin 15 mg/kg) of the same molecule?
A: 20.4 ± 15.2%

Q: What about the Fa at 3.5 h ([1]; palmitoyl carnitine chloride 10 mg/kg, β-cyclodextrin 0 mg/kg) of the same molecule?
A: 22.6 ± 13.5%

Q: What about the Fa at 3.5 h ([1]; palmitoyl carnitine chloride 10 mg/kg, β-cyclodextrin 7.5 mg/kg) of the same molecule?
A: 29.6 ± 8.2%

Q: What about the Fa at 3.5 h ([1]; palmitoyl carnitine chloride 10 mg/kg, β-cyclodextrin 15 mg/kg) of the same molecule?
A: 49.3 ± 13.4%

Q: And the Fa ([2]; 2 mg/kg, powder, 2 mg/kg drug, palmitoyl carnitine chloride 0 mg/kg, β-cyclodextrin 0 mg/kg, read-out: absorption determined as in Example 1 (± standard deviation))?
A: 0.18 ± 0.26%

Q: What about the Fa ([2]; 2 mg/kg, powder, 2 mg/kg drug, palmitoyl carnitine chloride 10 mg/kg, β-cyclodextrin 0 mg/kg, read-out: absorption determined as in Example 1 (± standard deviation)) of the same molecule?
A: 3.3 ± 1.9%

Q: What about the Fa ([2]; 2 mg/kg, powder, 2 mg/kg drug, palmitoyl carnitine chloride 10 mg/kg, β-cyclodextrin 7.5 mg/kg, read-out: absorption determined as in Example 1 (± standard deviation)) of the same molecule?
A: 8.9 ± 7.6%

Q: What about the Fa ([2]; 2 mg/kg, powder, 2 mg/kg drug, palmitoyl carnitine chloride 10 mg/kg, β-cyclodextrin 15 mg/kg, read-out: absorption determined as in Example 1 (± standard deviation)) of the same molecule?
A: 14.8 ± 9.8%

Q: What about the Fa ([2]; 2 mg/kg, tablet of lyophilized formulation containing β-cyclodextrin (15 mg/ml in solution), 2 mg/kg drug, 10 mg/kg palmitoyl carnitine chloride, read-out: percentage absorption) of the same molecule?
A: 28.2 ± 18.3%

Q: And the Fa ([2]; spheronized beads, drug:β-cyclodextrin:palmitoyl carnitine chloride:microcrystalline cellulose:starch 2:15:10:15:10, read-out: absorption)?
A: 8.8%

Q: What about the Fa ([2]; tablet of lyophilized formulation containing hydroxypropyl-β-cyclodextrin (20 mg/ml in solution), 2 mg/kg drug, 10 mg/kg palmitoyl carnitine chloride, read-out: percentage absorption) of the same molecule?
A: 7.5 ± 6.2%

Q: What about the AUC at 4 h ([3]; dog, blood, absence of β-cyclodextrin, read-out: area under concentration-time curve ± standard deviations (converted)) of the same molecule?
A: 6.02 ng·h/mL

Q: What about the area under concentration-time curve ± standard deviations ([3]; presence of β-cyclodextrin (7.5 mg/kg)) of the same molecule?
A: 19.8 ± 8.18 ng·h/mL

Q: And the route of excretion [4]?
A: excreted almost exclusively unchanged in the bile

Q: What about the dose excreted ([4]; rat, bile, after an IV dose, read-out: drug found in the bile) of the same molecule?
A: 92%
